Like-named read-outs stand apart in the source and are kept apart here.
What was measured:
human GPR41 = target: T1, human GPR41 (Homo sapiens, UniProt O14843)
T1 sequence (O14843 1-346): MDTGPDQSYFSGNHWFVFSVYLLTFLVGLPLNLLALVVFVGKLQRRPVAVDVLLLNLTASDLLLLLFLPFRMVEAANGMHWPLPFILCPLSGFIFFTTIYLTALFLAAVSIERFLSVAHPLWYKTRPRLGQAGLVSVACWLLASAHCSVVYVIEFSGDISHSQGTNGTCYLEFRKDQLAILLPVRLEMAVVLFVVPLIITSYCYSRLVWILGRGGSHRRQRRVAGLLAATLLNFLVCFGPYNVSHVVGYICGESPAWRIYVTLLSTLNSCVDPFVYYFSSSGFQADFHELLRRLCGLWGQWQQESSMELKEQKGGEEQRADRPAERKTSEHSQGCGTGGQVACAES
Method: HEK293T cells (HEK293 cells stably expressing the SV40 large T-antigen) were maintained in DMEM containing 10% (v/v) foetal calf serum and 2 mM glutamine. Cells were seeded in 60 mm culture dishes and grown to 60-80% confluency (18-24 h) prior to transfection with pCDNA3 containing the relevant DNA species using Lipofectamine reagent. For transfection, 3 μg of DNA was mixed with 10 μl of Lipofectamine in 0.2 ml of Opti-MEM (Life Technologies Inc.) and was incubated at room temperature for 30 min prior to the addition of 1.6 ml of Opti-MEM. Cells were exposed to the Lipofectamine/DNA mixture for 5 h and 2 ml of 20% (v/v) newborn calf serum in DMEM was then added. Cells were harvested 48-72 h after transfection.
Plasma membrane-containing P2 particulate fractions were prepared from cell pastes frozen at −80° C. after harvest. All procedures were carried out at 4° C. Cell pellets were resuspended in 1 ml of 10 mM Tris-HCl and 0.1 mM EDTA, pH 7.5 (buffer A) and by homogenisation for 20 s with a polytron homogeniser followed by passage (5 times) through a 25-guage needle. Cell lysates were centrifuged at 1,000 g for 10 min in a microcentrifuge to pellet the nuclei and unbroken cells and P2 particulate fractions were recovered by microcentrifugation at 16,000 g for 30 min. P2 particulate fractions were resuspended in buffer A and stored at −80° C. until required. Protein concentrations were determined using the bicinchoninic acid (BCA) procedure (4) using BSA as a standard.
Assays were performed in 96-well format using a method modified from Wieland and Jakobs, 1994. Membranes (10 μg per point) were diluted to 0.083 mg/ml in assay buffer (20 mM HEPES, 100 mM NaCl, 10 mM MgCl2, pH7.4) supplemented with saponin (10 mg/l) and pre-incubated with 40 μM GDP. […] Non-specific binding was determined by the inclusion of 0.6 mM GTP. […] Plates were centrifuged at 1500 g for 5 min and bound [^35S]GTPγS was determined by scintillation counting on a Wallac 1450 microbeta Trilux scintillation counter.

rGPR41 [1] = target: T2, rGPR41 (Rattus norvegicus, UniProt B2GV46); assay: Yeast FUS1-lacZ/FUS1-HIS3 reporter assay, rGPR41 in S. cerevisiae MMY22 (Gpa1/Gαo), FDG substrate; assay type: cell-based; parameters: expressed in transfected cells; host or cells: S. cerevisiae MMY22 (A1, A5; Gpa1/Gαo integrated) or MMY11 + pRS314-Gpa1/Gαo (A4), transformed with p426GPD-rGPR41
T2 sequence (B2GV46 1-319): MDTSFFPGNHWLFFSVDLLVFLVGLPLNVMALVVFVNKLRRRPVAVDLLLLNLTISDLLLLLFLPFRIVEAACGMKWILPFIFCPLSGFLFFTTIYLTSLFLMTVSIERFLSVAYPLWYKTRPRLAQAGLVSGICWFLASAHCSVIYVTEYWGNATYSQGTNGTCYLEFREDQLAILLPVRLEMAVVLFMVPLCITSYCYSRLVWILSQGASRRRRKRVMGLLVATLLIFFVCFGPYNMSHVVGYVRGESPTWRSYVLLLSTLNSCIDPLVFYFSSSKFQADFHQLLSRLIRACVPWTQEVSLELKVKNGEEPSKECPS
Method: A study was carried out of the function of rGPR41 following expression in S. cerevisiae MMY22, which is a derivative of S. cerevisiae MMY11 containing a copy of the gene encoding the Gpa1/Gαo transplant chimera described above (in which the 5 C-terminal amino acids of Gpa1 are replaced with the 5 C-terminal amino acids of Gαo) integrated into the genome. To do this, a cassette comprising the GPA1 promoter, nucleotide sequence encoding Gpa1/Gαo, and the terminator was sub-cloned from pRS314-Gpa1/Gαo into the yeast integrating plasmid pRS304 (Sikorski and Hieter, 1989). The resulting plasmid pRS304-Gpa1/Gαo was transformed into MMY11 and integrated into the trp1 locus creating MMY22.
The rGPR41 expression construct described above, p462GPD-rGPR41 was introduced into MMY22 by transformation as described above. Four separate transformants were tested for reporter gene activation in response to propionate. Assays for FUS1-lacZ and FUS1-HIS3 induction were performed as described, except the β-galactosidase (lacZ) substrate fluorescein di-β-D-galactopyranoside (FDG) was used in place of CPRG, and 3-aminotriazole concentration was 5 mM. Also, black-walled 96-well microtitre plates were used, and fluorescence resulting from degradation of FDG to fluorescein due to β-galactosidase was determined using a Spectrofluor microtitre plate reader (Tecan)(excitation wavelength: 485 nm; emmision wavelength: 535 nm).
A series of carboxylic acids and other compounds related to propionate were tested for the ability to activate rGPR41. Experiments were performed as described above, using yeast cells of strain MMY22 transformed with rGPR41 expression plasmid p462GPD-rGPR41, except that the agonist propionate was replaced with one of a series of other compounds, which are listed in table 2 below.
In vivo assays of reporter gene induction were carried out by suspending MMY11 cells transformed as described above to a density of 0.02 OD600/ml in 200 μl SC-glucose (2%) medium lacking tryptophan, uracil and histidine. This medium was supplemented with 10 mM 3-aminotriazole and the β-galactosidase (lacZ) substrate chlorophenolred-β-D-galactopyranoside (CPRG; Boehringer Mannheim) to a concentration of 0.1 mg/ml. Additionally the medium was supplemented with various concentrations of the agonist ligand, propionate (sodium propionate, pH 7.0). To visualise the yellow to red colour change reaction occurring on degradation of CPRG due to β-galactosidase, the medium was buffered to pH 7 with 0.1 M sodium phosphate. The assay was conducted in flat-bottomed sterile 96-well microtitre plates. Plates were incubated for 24 hours at 30° C. without agitation, and absorbance at 570 nm was determined using a Spectrofluor microtitre plate reader (Tecan).

rGPR41 [2] = target: T2, rGPR41; assay: Yeast reporter gene induction, MMY11 cells with p426GPD-rGPR41 and pRS314-Gpa1/Gαo, CPRG substrate; assay type: cell-based; settings: MMY11, Gpa1/Gαo transplant; FIG. 6
Excerpt: Significant absorbance at 570 nm, corresponding to induction of FUS1-lacZ and FUS1-HIS3 reporter genes, was detected for MMY11 cells containing p426GPD-rGPR41 in combination with pRS314-Gpa1/Gαo. These cells express rGPR41 in combination with a Gα subunit identical to Gpa1 but in which the 5 C-terminal amino acids are replaced with the 5 C-terminal amino acids of the mammalian Gα subunit, Gαo. This response is dependant on the presence of the agonist ligand propionate since no induction is detected in the absence of propionate (FIG. 6). […] Of the other Gα subunits tested, the pRS314-Gpa1/Gα12 and pRS314-Gpa1/Gα13 transplants supported weak rGPR41 coupling detectable after 48 hrs incubation (data not shown), and with no other Gα subunit could ligand responses of rGPR41 be detected.
The yeast strain MMY11 has been described previously (Olesnicky et al, 1999). […]
In vivo assays of reporter gene induction were carried out by suspending MMY11 cells transformed as described above to a density of 0.02 OD600/ml in 200 μl SC-glucose (2%) medium lacking tryptophan, uracil and histidine. […] Plates were incubated for 24 hours at 30° C. without agitation, and absorbance at 570 nm was determined using a Spectrofluor microtitre plate reader (Tecan).

[3] = system: isoprenaline-stimulated adenylate cyclase activity in rat primary adipocytes; settings: 10 minutes at 37° C., FIG. 11
Method: Isoprenaline stimulates adenylate cyclase activity and subsequently the process of lipolysis following activation of β-adrenoceptors and G,a in adipocytes.
A reaction mixture of 500 μl was used in a 1.5 ml eppendorf tube. The reaction was started by the addition of 100 μl of adipocytes to a 400 μl volume of Krebs buffer containing isoprenaline and test compound. Following the addition of the adipocytes the reaction tube was incubated at 37° C. for 10 minutes. The reaction was stopped with the addition of 500 μl of a stop mixture containing methanol (1 part), chloroform (2 parts) and 0.1N HCl (0.1 part). Following the addition of the stop mixture each tube was vortexed and then centifuged at 5000 rpm for 5 minutes. 300 μl of the supernatent was removed and stored at −20° C. The levels of cAMP in each samples were determined using an ELISA kit from R&D systems (DE0355).

[4] = yeast MMY22 with p462GPD-rGPR41, FDG fluorescence, compounds as salt solutions buffered to pH 7.0, read-out: Agonism @ rGPR41 Approx. EC50

Row | SMILES | stimulation of [35S]GTPγS binding (human GPR41; membranes of HEK293T cells, human GPR41 + Go1α, FIG. 2-4) | fluorescence, activation of the pheromone response pathway by rGPR41 (rGPR41 [1]; MMY22, four transformants, FIG. 7) | EC50 (rGPR41 [1]; yeast MMY22, text of Example 8, read-out: EC50 value at rGPR41) [µM] | EC50 (rGPR41 [1]; [4]) [µM] | induction of FUS1-lacZ and FUS1-HIS3 reporter genes (absorbance at 570 nm) (rGPR41 [2]) | stimulation of [35S]GTPγS binding (human GPR41) | isoprenaline-amplified cAMP levels [3]
1 | CCC(=O)O [Propionate] | most potent and efficacious | dependent on the concentration of propionate | 5 | ~5 | can be activated by propionate | – | –
2 | CC(=O)O [Acetate] | – | – | – | ~1000 | – | stimulation of [^35S]GTPγS binding | reduction of isoprenaline-amplified cAMP levels

Source: patent US20030113810A1, “Novel assay” (priority 2000, published 2003)
